Reference: patent US20230404976A1, “PHARMACEUTICAL COMBINATION CONTAINING CAPSID PROTEIN INHIBITOR AND NUCLEOSIDE ANALOG” (priority 2020, published 2023)

Test system: HBV DNA in mouse serum (rAAV8-1.3HBV, type D, ayw)
Experiment: AAV/HBV mouse model: qPCR quantification of HBV DNA in mouse serum
Format: in vivo, C57BL/6 mice
Details: for HBV DNA (log10, copy/μL) time (days) post-dose: 3: day 3; for HBV DNA (log10, copy/μL) time (days) post-dose: 3 / HBV DNA (log10, copy/μL) time (days) post-dose: 7 / HBV DNA (log10, copy/μL) time (days) post-dose: 14 / HBV DNA (log10, copy/μL) time (days) post-dose: 21 / HBV DNA (log10, copy/μL) time (days) post-dose: 28: i.g. days 0-27; for HBV DNA (log10, copy/μL) time (days) post-dose: 7: day 7; for HBV DNA (log10, copy/μL) time (days) post-dose: 14: day 14; for HBV DNA (log10, copy/μL) time (days) post-dose: 21: day 21; for HBV DNA (log10, copy/μL) time (days) post-dose: −1: day −1 (before first dose)
Procedure: Male C57BL/6 mice, 5 weeks old, free of specific pathogens, purchased from Shanghai Slac Laboratory Animal Co., Ltd., housed in independent ventilated cages. The mice were acclimatized for 3 days and then injected with the AAV/HBV virus.
rAAV8-1.3HBV (type D, ayw) was purchased from FivePlus, Beijing. It was diluted with sterile PBS to 5×10^11 v.g./mL before experiment. Each mouse was injected with 200 μL, i.e., 1×10^11 v.g.
AAV/HBV injection: rAAV8-1.3HBV was prepared into a 1×10^11 v.g./200 μL solution with sterile PBS in advance before injection. Mice were injected with 200 μL of the rAAV8-1.3HBV solution via the tail vein.
Grouping: On day 27 post virus injection, according to the serum HBV DNA, HBeAg and HBsAg results on days 14 and 21, the mice were randomized into groups of 8 or 4 and correspondingly treated according to the experimental design.
Group number: • i. Solvent group; • ii. Monotherapy group: entecavir; • iii. Monotherapy group: the compound of formula I 3 mpk; • iv. Combination group (combo): the compound of formula I 3 mpk and entecavir; • v. Monotherapy group: the compound of formula I 10 mpk; • vi. Combination group (combo): the compound of formula I 10 mpk and entecavir.
Compound treatment: On day 28 post infection, all mice were intragastrically administered a solvent or compound. The day of the first administration was counted as day 0 of experiment, and the duration of administration was from day 0 to day 27. Entecavir was administered once daily (QD) and the compound of formula I was administered twice daily (BID, 8 hr/16 hr apart). The administration volume was 10 mL/kg.
Non-endpoint blood collection: On day −1, 3, 7, 14, 21, 28, 35 or 42, about 120 μL of blood was collected from the submandibular vein, and serum was collected and assayed for HBV DNA. If blood collection and administration were on the same day, blood collection was performed about 5 hours after the first administration on that day.
Endpoints of experiment: mice in groups i-iv were euthanized on day 28. Blood was collected from the hearts of the mice, and serum was collected and assayed for HBV DNA. The endpoints of experiment for groups v and vi were on day 42.
qPCR Quantification of HBV DNA in mouse serum: The DNA was extracted from serum, and the experiment was performed by following the instructions for QIAamp 96 DNA Blood Kit. qPCR conditions: 95 ° C., 10 min, 1 cycle; 95° C., 15 s; 60° C., 1 min; 40 cycles.
Data were expressed as mean ±standard error, and statistical analysis was performed using Student t test.

[1] = entecavir 0.001 mg/kg QD, compound of formula I 3 mg/kg BID, mean ± standard error, LLOQ 2.08
[2] = compound of formula I 10 mg/kg BID, entecavir 0.001 mg/kg QD, values below LLOQ expressed as 2.08
[3] = day 28 (endpoint), entecavir 0.001 mg/kg QD, compound of formula I 3 mg/kg BID, mean ± standard error, LLOQ 2.08
[4] = Table 4 groups: entecavir 0.001 mg/kg QD, compound of formula I 3 mg/kg BID, i.g., mean ± standard error

Structure (SMILES)	HBV DNA (log10, copy/μL) time (days) post-dose: 3 [1]	HBV DNA (log10, copy/μL) time (days) post-dose: 7 [1]	HBV DNA (log10, copy/μL) time (days) post-dose: 14 [2]	HBV DNA (log10, copy/μL) time (days) post-dose: 14 [1]	HBV DNA (log10, copy/μL) time (days) post-dose: 21 [2]	HBV DNA (log10, copy/μL) time (days) post-dose: 21 [1]	HBV DNA (log10, copy/μL) time (days) post-dose: 28 [3]	HBV DNA (log10, copy/μL) time (days) post-dose: 28 (day 28, compound of formula I 10 mg/kg BID, entecavir 0.001 mg/kg QD, values below LLOQ expressed as 2.08)	HBV DNA (log10, copy/μL) time (days) post-dose: 31 (day 31 (after end of dosing on day 27), compound of formula I 10 mg/kg BID, entecavir 0.001 mg/kg QD, i.g., LLOQ 2.08)	HBV DNA (log10, copy/μL) time (days) post-dose: 35 (day 35 (after end of dosing on day 27), compound of formula I 10 mg/kg BID, entecavir 0.001 mg/kg QD, i.g., LLOQ 2.08)	HBV DNA (log10, copy/μL) time (days) post-dose: 42 (day 42 (endpoint, after end of dosing on day 27), compound of formula I 10 mg/kg BID, entecavir 0.001 mg/kg QD, i.g., LLOQ 2.08)	HBV DNA (log10, copy/μL) time (days) post-dose: −1 [4]	HBV DNA (log10, copy/μL) time (days) post-dose: −1 (Table 5 groups: compound of formula I 10 mg/kg BID, entecavir 0.001 mg/kg QD, i.g., mean ± standard error)
C[C@]1(NC(=O)C(=O)c2c(Cl)c(C(=O)Nc3cc(F)c(F)c(F)c3)c3n2CCC3)CC[C@H](CC(=O)O)CC1 [Compound of formula I, 2-((1r,4r)-4-(2-(6-chloro-7((3,4,5-trifluorophenyl)carbamoyl)-2,3-dihydro-1H-pyrrolin-5-yl)-2-oxalylamino)-4-methylcyclohexyl)acetic acid]	3.71 ± 0.10 log10, copy/μL	3.63 ± 0.09 log10, copy/μL	2.10 ± 0.02 log10, copy/μL	3.71 ± 0.06 log10, copy/μL	2.08 ± 0.00 log10, copy/μL	3.61 ± 0.11 log10, copy/μL	3.96 ± 0.11 log10, copy/μL	2.12 ± 0.04 log10, copy/μL	3.56 ± 0.12 log10, copy/μL	4.38 ± 0.09 log10, copy/μL	4.64 ± 0.08 log10, copy/μL	4.46 ± 0.07 log10, copy/μL	4.45 ± 0.07 log10, copy/μL
C=C1[C@H](CO)[C@@H](O)C[C@@H]1n1cnc2c(=O)[nH]c(N)nc21 [Entecavir, 2-amino-9-[(1S,3R,4S)-4-hydroxy-3-hydroxymethyl-2-methylenecyclopentyl]-1,9-dihydro-6H-purin-6-one, reference compound]	3.11 ± 0.10 log10, copy/μL	2.69 ± 0.11 log10, copy/μL		2.75 ± 0.13 log10, copy/μL		2.79 ± 0.12 log10, copy/μL	2.70 ± 0.17 log10, copy/μL					4.19 ± 0.12 log10, copy/μL	
